{
  "source": "paper PMC7373712",
  "about": "(British Journal of Clinical Pharmacology, 2020)",
  "key": {"[1]": {"details": "cited from earlier work"}, "[2]": {"experiment": "Pharmacokinetics of oral microdosed FXaI cocktail", "details": "for sex differences in pharmacokinetics (in words): 7 male, 11 female; for Cl/F (apparent oral clearance) / Ae (amount excreted in urine as parent drug): geom. mean (95% CI); for interaction / change of pharmacokinetics during voriconazole (in words): microdose cocktail with voriconazole"}, "[3]": {"experiment": "Safety: adverse events in study participants", "details": "for total number of AEs / participants with adverse event (AE): during the treatment named; for participants with adverse event (AE): healthy participants"}, "CYP3A": {"system": "CYP3A", "experiment": "CYP3A activity by oral microdosed midazolam", "details": "for AUC: both, human, in vivo, geom. mean"}, "[4]": {"details": "cited from earlier work", "remark": "listed apart in the source"}, "[5]": {"details": "microdose cocktail alone, cobicistat cohort (n = 6)"}, "[6]": {"details": "microdose cocktail alone, rifampicin cohort (n = 6)"}, "[7]": {"details": "microdose cocktail alone, voriconazole cohort (n = 6)"}, "[8]": {"details": "microdose cocktail during voriconazole (n = 6)"}, "[9]": {"details": "FXaI with cobicistat / FXaI alone"}},
  "note": "Where two headings read alike, the source gives them in different places.",
  "data": [
    {"smiles": "COc1ccc(-n2nc(C(N)=O)c3c2C(=O)N(c2ccc(N4CCCCC4=O)cc2)CC3)cc1", "note": "[apixaban]", "values": [
      {"measurement": "excreted unchanged into faeces and urine", "setting": "[1]; given orally", "result": "≥ 50", "unit": "%"},
      {"measurement": "fraction metabolised by CYP1A2 and CYP2J2", "setting": "[1]; given orally", "result": "about 6%"},
      {"measurement": "fraction metabolised via CYP3A", "setting": "[1]; given orally", "result": "approximately 15%"},
      {"measurement": "not identified or recovered so far", "setting": "[1]; given orally", "result": "about 22%"},
      {"measurement": "sex differences in pharmacokinetics (in words)", "setting": "[2]", "result": "No sex differences"},
      {"measurement": "Cl/F reduced to (% of FXaI alone)", "setting": "[2]; by cobicistat", "result": 60, "unit": "%"},
      {"measurement": "Vss/F reduced to (% of FXaI alone)", "setting": "[2]; by cobicistat", "result": "~50", "unit": "%"},
      {"measurement": "increase of AUC", "setting": "[2]; by cobicistat", "result": 67, "unit": "%"},
      {"measurement": "reduction of clearance", "setting": "[2]; by cobicistat", "result": 40, "unit": "%"},
      {"measurement": "Cl/F reduced to (% of FXaI alone)", "setting": "[2]; by single dose rifampicin", "result": 75, "unit": "%"},
      {"measurement": "Vss/F reduced to (% of FXaI alone)", "setting": "[2]; by single dose rifampicin", "result": "~50", "unit": "%"},
      {"measurement": "effect on Cmax (increase)", "setting": "[2]; by single dose rifampicin", "result": 69, "unit": "%"},
      {"measurement": "reduction of clearance", "setting": "[2]; by single dose rifampicin", "result": 25, "unit": "%"},
      {"measurement": "terminal elimination half-life shortening", "setting": "[2]; by single dose rifampicin", "result": "~40", "unit": "%"},
      {"measurement": "Cl/F reduced to (% of FXaI alone)", "setting": "[2]; by voriconazole", "result": 75, "unit": "%"},
      {"measurement": "effect on Cmax (increase)", "setting": "[2]; by voriconazole", "result": 15, "unit": "%"},
      {"measurement": "reduction of apparent oral clearance (Cl/F)", "setting": "[2]; by voriconazole", "result": 25, "unit": "%"},
      {"measurement": "renal clearance reduced to (% of FXaI alone)", "setting": "[2]; during cobicistat", "result": 70, "unit": "%"},
      {"measurement": "Cl/F (apparent oral clearance)", "setting": "[2]; [5]", "result": "66.4 (60.0–73.5) mL/min"},
      {"measurement": "Cl/F (apparent oral clearance)", "setting": "[2]; [6]", "result": "53.6 (44.5–64.6) mL/min"},
      {"measurement": "Cl/F (apparent oral clearance)", "setting": "[2]; [7]", "result": "78.0 (69.0–88.4) mL/min"},
      {"measurement": "Cl/F (apparent oral clearance)", "setting": "[2]; [8]", "result": "58.8 (42.5–81.4) mL/min"},
      {"measurement": "interaction / change of pharmacokinetics during voriconazole (in words)", "setting": "[2]", "result": "minor interaction"}
    ]},
    {"smiles": "CC(C)c1nc(CN(C)C(=O)N[C@@H](CCN2CCOCC2)C(=O)N[C@H](CC[C@H](Cc2ccccc2)NC(=O)OCc2cncs2)Cc2ccccc2)cs1", "note": "[cobicistat]", "values": [
      {"measurement": "total number of AEs", "setting": "[3]", "result": 3},
      {"measurement": "participants with adverse event (AE)", "setting": "[3]", "result": "3 out of 6"}
    ]},
    {"smiles": "Cn1c(Cn2ccc(C(F)(F)F)c(Oc3cc(Cl)cc(C#N)c3)c2=O)n[nH]c1=O", "note": "[doravirine]", "values": [
      {"measurement": "elimination half-life", "setting": "[1]; alone", "result": 18.6, "unit": "h"},
      {"measurement": "elimination half-life", "setting": "[1]; with a single dose of rifampicin", "result": 5.5, "unit": "h"}
    ]},
    {"smiles": "CN1CCc2nc(C(=O)N[C@@H]3C[C@@H](C(=O)N(C)C)CC[C@@H]3NC(=O)C(=O)Nc3ccc(Cl)cn3)sc2C1", "note": "[edoxaban]", "values": [
      {"measurement": "oral bioavailability", "setting": "[1]", "result": "~ 50%"},
      {"measurement": "excreted unchanged into urine", "setting": "[1]; of an oral dose", "result": "About 24%"},
      {"measurement": "found in faeces as parent drug", "setting": "[1]; of the oral dose", "result": "~ 50%"},
      {"measurement": "sex differences in pharmacokinetics (in words)", "setting": "[2]", "result": "No sex differences"},
      {"measurement": "Cl/F reduced to (% of FXaI alone)", "setting": "[2]; by cobicistat", "result": 57, "unit": "%"},
      {"measurement": "Vss/F reduced to (% of FXaI alone)", "setting": "[2]; by cobicistat", "result": 42, "unit": "%"},
      {"measurement": "terminal elimination half-life shortening", "setting": "[2]; by cobicistat", "result": 25, "unit": "%"},
      {"measurement": "Cl/F reduced to (% of FXaI alone)", "setting": "[2]; by single dose rifampicin", "result": 53, "unit": "%"},
      {"measurement": "Vss/F reduced to (% of FXaI alone)", "setting": "[2]; by single dose rifampicin", "result": 37, "unit": "%"},
      {"measurement": "terminal elimination half-life shortening", "setting": "[2]; by single dose rifampicin", "result": 30, "unit": "%"},
      {"measurement": "increased fraction excreted unchanged into urine", "setting": "[2]; by single oral dose of rifampicin", "result": 48.7, "unit": "%"},
      {"measurement": "Ae (amount excreted in urine as parent drug)", "setting": "[2]; [5]", "result": "32.3 (23.6–44.3) % of dose"},
      {"measurement": "Cl/F (apparent oral clearance)", "setting": "[2]; [5]", "result": "682 (578–804) mL/min"},
      {"measurement": "Ae (amount excreted in urine as parent drug)", "setting": "[2]; [6]", "result": "27.2 (19.1–38.8) % of dose"},
      {"measurement": "Cl/F (apparent oral clearance)", "setting": "[2]; [6]", "result": "643 (499–829) mL/min"},
      {"measurement": "Ae (amount excreted in urine as parent drug)", "setting": "[2]; [7]", "result": "24.4 (17.7–33.6) % of dose"},
      {"measurement": "Cl/F (apparent oral clearance)", "setting": "[2]; [7]", "result": "882 (619–1255) mL/min"},
      {"measurement": "Ae (amount excreted in urine as parent drug)", "setting": "[2]; [8]", "result": "29.4 (21.2–40.8) % of dose"},
      {"measurement": "Cl/F (apparent oral clearance)", "setting": "[2]; [8]", "result": "700 (445–1100) mL/min"},
      {"measurement": "interaction / change of pharmacokinetics during voriconazole (in words)", "setting": "[2]", "result": "none and No significant change"}
    ]},
    {"smiles": "Cc1ncc2n1-c1ccc(Cl)cc1C(c1ccccc1F)=NC2", "note": "[midazolam]", "values": [
      {"measurement": "AUC", "setting": "CYP3A; AUC2–4, 10 μg midazolam + cobicistat (n = 6)", "result": 0.27, "unit": "ng·h/mL"},
      {"measurement": "AUC", "setting": "CYP3A; AUC2–4, 10 μg midazolam + voriconazole (n = 6)", "result": 0.285, "unit": "ng·h/mL"}
    ]},
    {"smiles": "CO[C@H]1/C=C/O[C@@]2(C)Oc3c(C)c(O)c4c(O)c(c(/C=N/N5CCN(C)CC5)c(O)c4c3C2=O)NC(=O)/C(C)=C\\C=C\\[C@H](C)[C@H](O)[C@@H](C)[C@@H](O)[C@@H](C)[C@H](OC(C)=O)[C@@H]1C", "note": "[rifampicin]", "values": [
      {"measurement": "participants with adverse event (AE)", "setting": "[3]", "result": "none"}
    ]},
    {"smiles": "O=C(NC[C@H]1CN(c2ccc(N3CCOCC3=O)cc2)C(=O)O1)c1ccc(Cl)s1", "note": "[rivaroxaban]", "values": [
      {"measurement": "AUC ratio with and without ketoconazole", "setting": "[4]; microdosed FXaI cocktail", "result": 2.27},
      {"measurement": "AUC ratio with and without ketoconazole", "setting": "[4]; therapeutic dose, single-dose, 200 mg ketoconazole", "result": 1.82},
      {"measurement": "AUC ratio with and without ketoconazole", "setting": "[4]; therapeutic dose, steady-state, 400 mg ketoconazole", "result": 2.58},
      {"measurement": "share of CYP3A and CYP2J2 in total clearance", "setting": "[1]", "result": "~ 32%"},
      {"measurement": "sex differences in pharmacokinetics (in words)", "setting": "[2]", "result": "No sex differences"},
      {"measurement": "AUC ratio (AUCR)", "setting": "[2]; [9]", "result": 2.0},
      {"measurement": "Cmax ratio", "setting": "[2]; [9]", "result": 1.39},
      {"measurement": "Vss/F reduced to (% of FXaI alone)", "setting": "[2]; by cobicistat", "result": 72, "unit": "%"},
      {"measurement": "renal clearance reduced by", "setting": "[2]; by cobicistat", "result": "~50", "unit": "%"},
      {"measurement": "terminal elimination half-life prolongation", "setting": "[2]; by cobicistat", "result": 40, "unit": "%"},
      {"measurement": "Vss/F reduced to (% of FXaI alone)", "setting": "[2]; by single dose rifampicin", "result": 64, "unit": "%"},
      {"measurement": "terminal elimination half-life shortening", "setting": "[2]; by single dose rifampicin", "result": 31, "unit": "%"},
      {"measurement": "change of AUC", "setting": "[2]; by voriconazole", "result": 33, "unit": "%"},
      {"measurement": "reduction of apparent oral clearance (Cl/F)", "setting": "[2]; by voriconazole", "result": 33, "unit": "%"},
      {"measurement": "Ae (amount excreted in urine as parent drug)", "setting": "[2]; [5]", "result": "44.5 (32.5–61.1) % of dose"},
      {"measurement": "Cl/F (apparent oral clearance)", "setting": "[2]; [5]", "result": "104 (84–129) mL/min"},
      {"measurement": "Ae (amount excreted in urine as parent drug)", "setting": "[2]; [6]", "result": "54.8 (48.7–61.6) % of dose"},
      {"measurement": "Cl/F (apparent oral clearance)", "setting": "[2]; [6]", "result": "113 (84–152) mL/min"},
      {"measurement": "Ae (amount excreted in urine as parent drug)", "setting": "[2]; [7]", "result": "53.7 (46.2–60.1) % of dose"},
      {"measurement": "Cl/F (apparent oral clearance)", "setting": "[2]; [7]", "result": "121 (85–172) mL/min"},
      {"measurement": "Ae (amount excreted in urine as parent drug)", "setting": "[2]; [8]", "result": "55.5 (47.8–64.4) % of dose"},
      {"measurement": "Cl/F (apparent oral clearance)", "setting": "[2]; [8]", "result": "92 (62–137) mL/min"},
      {"measurement": "interaction / change of pharmacokinetics during voriconazole (in words)", "setting": "[2]", "result": "minor interaction"}
    ]},
    {"smiles": "C[C@@H](c1ncncc1F)[C@](O)(Cn1cncn1)c1ccc(F)cc1F", "note": "[voriconazole]", "values": [
      {"measurement": "total number of AEs", "setting": "[3]", "result": 7},
      {"measurement": "participants with adverse event (AE)", "setting": "[3]", "result": "Five out of 6"},
      {"measurement": "visual disturbances (number of AEs)", "setting": "[3]; during voriconazole treatment", "result": 4},
      {"measurement": "CYP3A inhibition (in words)", "setting": "CYP3A; judged from microdosed midazolam exposure", "result": "strong CYP3A inhibitors"}
    ]}
  ]
}
